# Results published in patent US11719696B2, “Methods and compounds for diagnosing threonyl-tRNA synthetase-associated diseases and conditions” (The University of Vermont and State Agricultural College, priority 2012, dated 2023).
# What was measured:
# HUVECs [1] = experiment: Endothelial cell proliferation assay (alamarBlue); type: cell-based, Human; settings: 10 nM BC194 with 50 ng/ml VEGF, low serum media
# Protocol: Endothelial Cell Proliferation Assay—The […] alamarBlue® (Invitrogen) reagent was used to assess cell proliferation (Ahmed, Gogal et al. 1994). HUVECs were seeded in a 96-well dish (1×10^3 cells/well) and grown for 48 h in EGM®-2 media. Cells were incubated in 0.2% FBS EGM®-2 media or EGM®-2 complete media as indicated; VEGF (50 ng/ml) and media alone served as controls. After 48 h, 72 h, or 96 h in culture, 10 μl/well premixed alamarBlue® (Invitrogen) was added and after 3 h at 37° C. the amount of reduced alamarBlue® was quantified by fluorescence (excitation at 530 nm, emission at 590 nm) on a microplate reader (Synergy™ HT, BioTek, Winooski, Vt.).
# [2] = tested on: chorioallantoic membrane (CAM); experiment: Chick chorioallantoic membrane (CAM) assay; type: in vivo, chicken; settings: for CAM vessel formation / vascularization on application of protein: purified protein applied daily to sponge on CAM, 72 h
# Protocol: Chick Chorioallantoic Membrane Assay—Fertilized chicken eggs (Sunrise Farms, Catskill, N.Y.) day 1-2 post-laying were incubated in a humidified incubator at 37° C. for 72 h. Cleaned eggs were cracked and plated in a sterile 10 cm^2 tissue culture-treated dish and incubated at 37° C. for another 7 days. On developmental day 10, 1 mm sterile gelatin sponge pieces (Surgifoam®; Johnson & Johnson Wound Management, Somerville, N.J.) were placed within the outer one-third of the membrane between large vessels. 40 μg/ml human bFGF and 2 μg/ml human VEGF were used as pro-angiogenic control compounds; 100 μg/mL retinoic acid (Sigma-Aldrich, St. Louis, Mo.) diluted in phosphate-buffered saline (PBS) was used as an angiostatic control. All compounds were applied in 10 μl to the CAM every 24 h for 72 h. Images were taken using a Leica MZ6 stereomicroscope every 24 h. Compounds were scored according to a modified version of Intensity Scoring as previously described (Ribatti, Nico et al. 2006). Briefly, each experimental condition was given a blinded score from 0-5 based on the change in the extent of vessel convergence and formation in proximity to the sponge from day 0 to day 3. Total score is averaged individual experimental condition scores from at least 15 replicates.
# Fertilized chicken embryos were cultured ex-ova and, starting at developmental day 10, agents were applied daily to gelfoam sponges on the CAM. Images were recorded daily over 72 h and scored blindly according to a modified version Intensity Scoring as previously described (Ribatti, Nico, 2006). Additional details regarding methods are provided in the Methods and Materials section of Example 1.
# [3] = tested on: SK-OV3 ovarian cancer cells; experiment: HIF-1α stabilization in hypoxia (Western blot); type: cell-based, Human
# Protocol: Co-Immunoprecipitation—Plasmids expressing biotinylatable TARS (pTARS) and myc-tagged VHL (pVHL) were transfected into HEK293 cells, and then extracts were prepared. Biotin-TARS was precipitated using streptavidin-coupled beads. Myc-VHL was precipitated using anti-myc antibodies. Precipitates were separated by SDS-PAGE, transferred and blots probed with anti-TARS antibody or anti-myc (VHL) antibody. Western blot—After treatments, cells were harvested into sample buffer containing: 0.2 M Tris-HCL, 4% SDS, 4% β-mercaptoethanol, 40% glycerol, 4 μM pyronin Y. Extracts were sheared through a 24-gauge syringe. Samples were separated by 10% SDS-PAGE and transferred to nitrocellulose membrane and probed with rabbit polyclonal anti-TARS (1:500; Santa Cruz Biotechnology, Dallas, Tex.) or monoclonal anti-HIF-1α (BD Transduction Laboratories, [BD Biosciences, San Jose, Calif.]) (Lounsbury, Beddow et al., 1994). […] Major bands and their empty vector counterparts were detected using SilverSNAP Stain Kit II (Pierce) and excised. […] Peptides were analyzed by electospray ionization (ESI) liquid chromatography mass spectrometry (LC-MS). […] Spectra were obtained using collision-induced dissociation with an LTQ linear quadrupole ion trap-Orbitrap mass spectrometer (Thermo Electro, San Jose, Calif.) and analyzed using SEQUEST (Bioworks software package, version 3.3.1; Thermo Electron, San Jose, Calif.). […]
# [4] = tested on: Human umbilical vein endothelial cells (HUVECs); experiment: In vitro endothelial tube formation assay; type: cell-based
# Protocol: In vitro Tube Formation Assay—Tube formation assays were performed as described (Arnaoutova and Kleinman 2010; Cassavaugh, Hale et al., 201). Human Umbilical Vein Endothelial Cells (HUVECs) were seeded in 48-well plates (1.5×10^4 cells/well) coated with 100 μl of Matrigel™ Basement Membrane Matrix Growth Factor Reduced (BD Biosciences, San Jose, Calif.) and incubated in Clonetics® EGM®-2 complete media (Lonza, Annandale, N.J.) or EGM®-2 with reduced serum (0.2% fetal bovine serum). Cells were incubated at 37° C. for 6 h then fixed in 10% formalin. Fixed samples were imaged by phase-contrast microscopy or stained with Oregon Green 488 Phalloidin (Molecular Probes, Eugene, Oreg.) then imaged with fluorescence microscopy (2× objective). Number of tubes and tube lengths (in pixels) were quantified using the Simple Neurite Tracer (Longair, Baker et al. 2011) plug-in on ImageJ software (NIH). Statistical analysis of one-way ANOVA was performed with GraphPad Software. Multiple comparisons were performed using the Tukey Test.
# human TARS = experiment: GTPase (GTP hydrolysis) assay; type: biochemical; settings: for change in TARS GTPase activity upon treatment: 10 μM compound
# HUVECs [5] = experiment: TARS mRNA by quantitative RT-PCR; type: cell-based, Human; settings: HUVECs exposed to 50 ng/ml
# Protocol: Quantitative RT-PCR—Total RNA was extracted from cells using the RNeasy column protocol and cDNA was generated using an Omniscript reverse transcriptase assay according to the manufacturer's instructions (Qiagen, Frederick, Md.). Primers and probes for TARS and β2-microglobulin were Assays-on-Demand (Applied Biosystems, [Life Technologies, Carlsbad, Calif.]). RT-qPCR was performed using an ABI prism 7700 Sequence Detection System (Applied Biosystems). The relative quantity of mRNA level was determined using the comparative CT (ΔΔCT) method using β2-microglobulin to normalize mRNA level (Cassavaugh, Hale et al. 2011).
# [6] = canonical substrate added to human TARS
molecule,measurement,setting,value
"C[C@@H]1C[C@H](C)C[C@H](C)[C@@H](O)CC(=O)O[C@H]([C@@H]2CC[C@H]2C(=O)O)C/C=C/C=C(/C#N)[C@H](O)[C@@H](C)C1 [BC194, reference compound]",effect on VEGF proliferative response,HUVECs [1],did not significantly reduce
same,CAM vessel formation with inhibitor,"[2]; daily application to gel sponge, basal level and after stimulation with bFGF or VEGF",inhibited vessel formation
same,HIF-1α transcription,[3],no change
same,tube length,"[4]; HUVECs on Matrigel, range of BC194 concentrations, 6 h",unaffected
same,concentration required to affect tube formation relative to that required to detect unfolded protein response (phospho-eIF2a) and apoptosis (cleaved caspase-3),[4]; fold lower,100 fold
same,change in TARS GTPase activity upon treatment,human TARS,no observable change
LARS: N-terminal His6-tagged human leucyl tRNA synthetase purified from E. coli,CAM vessel formation / vascularization on application of protein,[2],no observable effect
C[C@@H](O)[C@H](N)C(=O)O [threonine],increase in GTPase activity,human TARS; [6],26%
Nc1ncnc2c1ncn2[C@@H]1O[C@H](COP(=O)(O)OP(=O)(O)OP(=O)(O)O)[C@@H](O)[C@H]1O [ATP],decrease in GTPase activity,human TARS; [6],77%
TNF-α,TARS transcription (TARS mRNA),HUVECs [5],do not induce TARS transcription
"C[C@@H]1C[C@H](C)C[C@H](C)[C@@H](O)CC(=O)O[C@H]([C@@H]2CCC[C@H]2C(=O)O)C/C=C/C=C(/C#N)[C@H](O)[C@@H](C)C1 [borrelidin, reference compound]",HIF-1α transcription,[3],no change
same,change in TARS GTPase activity upon treatment,human TARS,no observable change
VEGF,TARS transcription (TARS mRNA),HUVECs [5],do not induce TARS transcription
"L567V TARS: BC194-resistant (borrelidin-resistant) L567V mutant of human TARS (protein, UniProt P26639 1-723, looked up, variant L567V) Threonine--tRNA ligase 1, …: MFEEKASSPSGKMGGEEKPIGAGEEKQKEGGKKKNKEGSGDGGRAELNPWPEYIYTRLEMYNILKAEHDSILAEKAEKDSKPIKVTLPDGKQVDAESWKTTPYQIACGISQGLADNTVIAKVNNVVWDLDRPLEEDCTLELLKFEDEEAQAVYWHSSAHIMGEAMERVYGGCLCYGPPIENGFYYDMYLEEGGVSSNDFSSLEALCKKIIKEKQAFERLEVKKETLLAMFKYNKFKCRILNEKVNTPTTTVYRCGPLIDLCRGPHVRHTGKIKALKIHKNSSTYWEGKADMETLQRIYGISFPDPKMLKEWEKFQEEAKNRDHRKIGRDQELYFFHELSPGSCFFLPKGAYIYNALIEFIRSEYRKRGFQEVVTPNIFNSRLWMTSGHWQHYSENMFSFEVEKELFALKPMNCPGHCLMFDHRPRSWRELPLRLADFGVLHRNELSGALTGLTRVRRFQQDDAHIFCAMEQIEDEIKGCLDFLRTVYSVFGFSFKLNLSTRPEKFLGDIEVWDQAEKQLENSLNEFGEKWELNSGDGAFYGPKIDIQIKDAIGRYHQCATIQLDFQVPIRFNLTYVSHDGDDKKRPVIVHRAILGSVERMIAILTENYGGKWPFWLSPRQVMVVPVGPTCDEYAQKVRQQFHDAKFMADIDLDPGCTLNKKIRNAQLAQYNFILVVGEKEKISGTVNIRTRDNKVHGERTISETIERLQQLKEFRSKQAEEEF",sensitivity of the protein's CAM angiogenic effect to BC194,[2]; protein co-applied with BC194,not inhibited
same,CAM vessel formation / vascularization on application of protein,[2],stimulated vessel formation
"R442A TARS: aminoacylation-deficient human TARS mutant, active site Arg442 substituted with alanine (protein, UniProt P26639 1-723, looked up, variant R442A) Threonine--tRNA ligase 1, …: MFEEKASSPSGKMGGEEKPIGAGEEKQKEGGKKKNKEGSGDGGRAELNPWPEYIYTRLEMYNILKAEHDSILAEKAEKDSKPIKVTLPDGKQVDAESWKTTPYQIACGISQGLADNTVIAKVNNVVWDLDRPLEEDCTLELLKFEDEEAQAVYWHSSAHIMGEAMERVYGGCLCYGPPIENGFYYDMYLEEGGVSSNDFSSLEALCKKIIKEKQAFERLEVKKETLLAMFKYNKFKCRILNEKVNTPTTTVYRCGPLIDLCRGPHVRHTGKIKALKIHKNSSTYWEGKADMETLQRIYGISFPDPKMLKEWEKFQEEAKNRDHRKIGRDQELYFFHELSPGSCFFLPKGAYIYNALIEFIRSEYRKRGFQEVVTPNIFNSRLWMTSGHWQHYSENMFSFEVEKELFALKPMNCPGHCLMFDHRPRSWRELPLRLADFGVLHANELSGALTGLTRVRRFQQDDAHIFCAMEQIEDEIKGCLDFLRTVYSVFGFSFKLNLSTRPEKFLGDIEVWDQAEKQLENSLNEFGEKWELNSGDGAFYGPKIDIQIKDAIGRYHQCATIQLDFQLPIRFNLTYVSHDGDDKKRPVIVHRAILGSVERMIAILTENYGGKWPFWLSPRQVMVVPVGPTCDEYAQKVRQQFHDAKFMADIDLDPGCTLNKKIRNAQLAQYNFILVVGEKEKISGTVNIRTRDNKVHGERTISETIERLQQLKEFRSKQAEEEF",CAM vessel formation / vascularization on application of protein,[2],virtually indistinguishable from wild type
